Experiments:
Solubility of X4P-001 = type: physicochemical
[1] = Phase 1 and 2a trials; cited from earlier work
melanoma lesions = test: CD8/Ki67/melanoma staining with nearest neighbor spatial analysis of biopsies; type: in vivo, human
Method: Tumor samples obtained from melanoma patients were formalin-fixed and paraffin-embedded (FFPE) according to known procedures. FFPE tissue sections were baked for 1 hour at 60° C. The slides were dewaxed and stained on a Leica BOND Rx stainer (Leica, Buffalo Grove, Ill.) using Leica Bond reagents for dewaxing (Dewax Solution), antigen retrieval and antibody stripping (Epitope Retrieval Solution 2), and rinsing after each step (Bond Wash Solution). A high stringency wash was performed after the secondary and tertiary applications using high-salt TBST solution (0.05 M Tris, 0.3M NaCl, and 0.1% Tween-20, pH 7.2-7.6).
Multiplex IHC staining was analyzed using HALO™ spatial analysis tools, and the entire tumor area of each specimen was scored. (See Tunstall, “Quantifying Immune Cell Distribution in the Tumor Microenvironment Using HALO™ Spatial Analysis Tools,” Application Note, July […], (Indica Labs), accessed Nov. 1, 2017, on https://thepathologist.com/fileadmin/issues/App_Notes/0016-010-halo-app-note.pdf). See also Sherry et al., Cancer Research 77(13) Supp: Abstract 2937 (2017).
Slides were sequentially stained with antibody panels after rounds of heat-induced epitope retrieval and detected by antibody-binding HRP-containing polymers in conjunction with fluorescent tyramide substrate (Opal, Perkin-Elmer). DAPI was used as a nuclear counterstain. Fluorochromes with spectral overlap were imaged using spectral deconvolution and autofluorescence-subtraction (Vectra 3.0, Perkin-Elmer). Whole-slide scans were imaged using the Aperio-FL System (Leica Biosystems) and transferred into Halo for quantitative digital image analysis. After the cells were visualized based on nuclear recognition (DAPI stain), the software measured fluorescence intensity of the estimated cytoplasmic areas of each cell. A mean intensity threshold above background was used to determine positivity for each fluorochrome within the cytoplasm, thereby, defining cells as either positive or negative for each marker. The positive cell data was then used to define colocalized populations and to perform nearest neighbor spatial analysis.
Staining for CD4, CD8, PD-1, PD-L1, CD163/CD68 (macrophage), FoxP3, Ki-67, and melanoma cells was accomplished using the antibodies listed in TABLE 3 and 4. OPAL Polymer HRP Mouse plus Rabbit (Perkin-Elmer, Hopkington, Mass.) was used for all secondary applications. […]
Representative distance measurements between CD8^+ T cells and their nearest melanoma cell neighbors are shown in FIG. 13 (Day 1), FIG. 14 (Week 4), and FIG. 15 (End of treatment). Whole slide scans were performed using a fluorescence slide scanner (Aperio-FL, 20× objective). […]

melanoma tumor interface = test: Multiplex IHC and HALO count of CD8+ cells at the tumor interface; type: in vivo, human
Method: CD8-labeled cells within […] of the inside or outside of the tumor boundary with normal tissue were counted. The number of CD8^+ cells/mm^2 was plotted against distance from the boundary in […] bands.

solubility (Solubility of X4P-001; aqueous buffer, pH range 3.0 to 8.0 (freely soluble)): > 100 mg/mL
solubility in water (Solubility of X4P-001; water): only slightly soluble
SMILES: NCCCCN(Cc1nc2ccccc2[nH]1)[C@H]1CCCc2cccnc21 [X4P-001]
pharmacodynamic activity: circulating white blood cells (WBCs) [1]: dose- and concentration-related changes
volume of distribution (VL) [1]: high
number of unique neighbors (melanoma lesions; after 4 weeks of monotherapy, Day 1 3,826): 5,239
average distance between CD8+ T cells and the nearest tumor cell (melanoma lesions; after 4 weeks of monotherapy, Day 1 baseline 95): 43 microns
CD8+ T cell density (melanoma lesions; patient 5, entire tissue sample, after monotherapy): increased
proliferating CD8+ T cell (Ki67+) density (melanoma lesions; patient 5, entire tissue sample, after monotherapy, stronger impact): increased
CD8 Avg. Density (melanoma tumor interface; Week 4, Day 1 380.0449): 1550.5403 cells/mm^2
CD8 Within Interface Area (melanoma tumor interface; Week 4, Day 1 5233): 7557
CD8 Count (melanoma tumor interface; Week 4, Day 1 8924): 25894
total density of CD8+ cells within the boundary area compared with baseline (melanoma tumor interface; after 3 weeks of monotherapy, within 100 μM of tumor boundary): increased four-fold

— patent US20210349099A1, “CANCER BIOMARKERS AND METHODS OF USE THEREOF” (X4 Pharmaceuticals, Inc., priority 2017, published 2021)
